Our source for the IC50 values is patent US7985753B2, “Substituted pyrazolo[1,5-A]pyrimidines as metabotropic glutamate receptor modulators” (MERZ PHARMA GmbH & Co. KGaA, priority 2006, dated 2011).

The IC50 is the point on the concentration scale where inhibition reaches its midpoint.

Chain of metabotropic glutamate receptor (mGluR5) (P41594 21-1212): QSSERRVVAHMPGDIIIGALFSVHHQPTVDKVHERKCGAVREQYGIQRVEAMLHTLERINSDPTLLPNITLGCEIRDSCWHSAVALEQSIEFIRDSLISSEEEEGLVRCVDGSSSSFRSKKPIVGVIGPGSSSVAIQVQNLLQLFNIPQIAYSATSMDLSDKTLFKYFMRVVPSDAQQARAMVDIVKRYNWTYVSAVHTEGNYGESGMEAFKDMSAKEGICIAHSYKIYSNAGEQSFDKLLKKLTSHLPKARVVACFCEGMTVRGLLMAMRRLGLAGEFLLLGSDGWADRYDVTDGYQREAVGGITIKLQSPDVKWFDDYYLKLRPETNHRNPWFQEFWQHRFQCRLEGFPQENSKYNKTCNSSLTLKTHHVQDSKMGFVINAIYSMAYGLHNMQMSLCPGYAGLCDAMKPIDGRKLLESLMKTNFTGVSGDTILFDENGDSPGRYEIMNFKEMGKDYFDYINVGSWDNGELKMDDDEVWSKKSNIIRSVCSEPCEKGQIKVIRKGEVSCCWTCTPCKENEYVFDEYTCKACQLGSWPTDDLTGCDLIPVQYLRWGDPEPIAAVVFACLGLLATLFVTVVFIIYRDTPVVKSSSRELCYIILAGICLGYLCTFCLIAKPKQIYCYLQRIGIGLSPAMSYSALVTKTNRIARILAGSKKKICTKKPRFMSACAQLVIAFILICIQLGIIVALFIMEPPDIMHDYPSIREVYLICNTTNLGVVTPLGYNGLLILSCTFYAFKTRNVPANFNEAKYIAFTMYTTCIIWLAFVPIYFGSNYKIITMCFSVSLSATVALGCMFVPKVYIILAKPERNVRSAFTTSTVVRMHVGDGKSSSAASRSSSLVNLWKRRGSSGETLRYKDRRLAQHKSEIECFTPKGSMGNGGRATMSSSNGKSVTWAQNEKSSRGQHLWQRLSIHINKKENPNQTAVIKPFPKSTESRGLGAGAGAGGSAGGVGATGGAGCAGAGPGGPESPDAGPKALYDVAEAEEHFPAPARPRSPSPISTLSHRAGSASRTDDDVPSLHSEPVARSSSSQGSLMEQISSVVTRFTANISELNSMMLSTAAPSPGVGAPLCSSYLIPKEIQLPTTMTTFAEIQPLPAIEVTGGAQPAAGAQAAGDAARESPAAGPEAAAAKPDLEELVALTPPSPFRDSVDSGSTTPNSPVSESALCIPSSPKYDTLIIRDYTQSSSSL

In the first assay the target is metabotropic glutamate receptor (mGluR5) (Homo sapiens, UniProt P41594). Kind of assay: Cytosolic calcium studies with stably transfected cells (FLIPR). The following applies: CHO-K1 cells expressing human mGluR5; agonist L-quisqualic acid; read-out: mGluR5_FLIPR_h_CHO_NAM IC50. Also noted: expressed in transfected cells; host or cells: CHO-K1 cells, IPTG-inducible expression. The class given is cell-based. On the procedure: Cytosolic Calcium Studies with Stably Transfected Cells:
Chinese hamster ovary cells (CHO-K1 cells), stably transfected for inducible expression of a human metabotropic glutamate receptor mGluR5, are seeded into black clear bottom 96 well plates at a density of 35.000 cells per well. The standard growth medium used (Dulbecco's modified Eagle Medium, DMEM plus L-proline) contains the appropriate inducer isopropyl-β-D-thiogalactopyranosid (IPTG) to achieve optimal receptor expression. One day after seeding the growth medium is exchanged for reconstituted Ca-Kit (Molecular Devices, USA) and incubated for one hour. Ca-Kit is reconstituted in an assay buffer containing 20 mM HEPES pH 7.4, glutamic-pyruvate transaminase, pyridoxal phosphate and sodium pyruvate in Hank's balanced salt solution (HBBS). Agonistic compounds to the receptor elicit increases in cytosolic calcium which can be measured as increases in fluorescence signals by use of a fluorescence imaging plate reader (Molecular Devices).
(§1) The fluorescence signal increase after addition of agonist reflects the increase of cytosolic calcium. Inconsistencies in the amount of cells per well are normalised by using the spatial uniformity correction of the FLIPR software. The mean of replicated temporal data (n=3-5) is calculated and used for graphical representation. For the evaluation of the pharmacology, the calcium changes in response to different concentrations of agonist or antagonist are determined using a maximum minus minimum (MaxMin) calculation.
(§2) All responses (RFU-values) are determined as percentage of control (=maximum response). EC50 and IC50 are calculated according the logistic equation using GraFit 5.0 (Erithacus Software, GB) or Prism 4.0 (GraphPad Software, USA).
Regarding `COc1cc2c(cc1O)CCN(C(=O)c1cc3ncc(Br)cn3n1)C2C` (centres unmarked) [Example 1, (6-Bromo-pyrazolo[1,5-a]pyrimidin-2-yl)-(6-hydroxy-7-methoxy-1-methyl-3,4-dihydro-1H-isoquinolin-2-yl)-methanone], the IC50 came out at 267 nM.
Take `CC1c2cc(F)ccc2CCN1C(=O)c1cc2ncc(Br)cn2n1` (centres unmarked) [drawing 434, (6-Bromo-pyrazolo[1,5-a]pyrimidin-2-yl)-(7-fluoro-1-methyl-3,4-dihydro-1H-isoquinolin-2-yl)-methanone]: the half-maximal inhibitory concentration (IC50) came to 43.8 nM.
Turning to `CC1c2cccc(F)c2CCN1C(=O)c1cc2ncc(Br)cn2n1` (centres unmarked) [drawing 435, (6-Bromo-pyrazolo[1,5-a]pyrimidin-2-yl)-(5-fluoro-1-methyl-3,4-dihydro-1H-isoquinolin-2-yl)-methanone], the IC50 was determined as 56.5 nM.
The same measure, in the same setting: the figure for `CC1c2ccc(F)cc2CCN1C(=O)c1cc2ncc(Cl)cn2n1` (centres unmarked) [drawing 436, (6-Chloro-pyrazolo[1,5-a]pyrimidin-2-yl)-(6-fluoro-1-methyl-3,4-dihydro-1H-isoquinolin-2-yl)-methanone] is 66.3 nM; for `CC1CN(C(=O)c2cc3ncc(Cl)cn3n2)C(C)c2ccccc21` (centres unmarked) [drawing 437, (6-Chloro-pyrazolo[1,5-a]pyrimidin-2-yl)-(1,4-dimethyl-3,4-dihydro-1H-isoquinolin-2-yl)-methanone] it is 101 nM; for `CC1CN(C(=O)c2cc3ncc(Br)cn3n2)C(C)c2ccccc21` (centres unmarked) [drawing 438, (6-Bromo-pyrazolo[1,5-a]pyrimidin-2-yl)-(1,4-dimethyl-3,4-dihydro-1H-isoquinolin-2-yl)-methanone] it is 161 nM.
As to `COc1ccc2c(c1)CCN(C(=O)c1cc3ncc(Br)cn3n1)C2C` (centres unmarked) [drawing 439, (6-Bromo-pyrazolo[1,5-a]pyrimidin-2-yl)-(6-methoxy-1-methyl-3,4-dihydro-1H-isoquinolin-2-yl)-methanone], the IC50 was 159 nM.
Turning to `COc1ccc2c(c1)CCN(C(=O)c1cc3ncc(Cl)cn3n1)C2C` (centres unmarked) [drawing 440, (6-Chloro-pyrazolo[1,5-a]pyrimidin-2-yl)-(6-methoxy-1-methyl-3,4-dihydro-1H-isoquinolin-2-yl)-methanone], the IC50 is 155 nM.
As for `CC1c2cccc(Br)c2CCN1C(=O)c1cc2ncc(Cl)cn2n1` (centres unmarked) [drawing 441, (5-Bromo-1-methyl-3,4-dihydro-1H-isoquinolin-2-yl)-(6-chloro-pyrazolo[1,5-a]pyrimidin-2-yl)-methanone], the IC50 turned out to be 178 nM.
For the molecule `O=C(c1cc2ncc(Cl)cn2n1)N1CCc2ncc(Br)cc2C1` [drawing 442, (3-Bromo-7,8-dihydro-5H-[1,6]naphthyridin-6-yl)-(6-chloro-pyrazolo[1,5-a]pyrrimidin-2-yl)-methanone], the IC50 turned out to be 167 nM.

The target in the next assay is T1, mGluR5 receptors (Rattus norvegicus, UniProt P31424).
T1 construct: endogenous in cells; host or cells: primary astrocytes from neocortex of Sprague-Dawley rat pups
T1 sequence (P31424 21-1203): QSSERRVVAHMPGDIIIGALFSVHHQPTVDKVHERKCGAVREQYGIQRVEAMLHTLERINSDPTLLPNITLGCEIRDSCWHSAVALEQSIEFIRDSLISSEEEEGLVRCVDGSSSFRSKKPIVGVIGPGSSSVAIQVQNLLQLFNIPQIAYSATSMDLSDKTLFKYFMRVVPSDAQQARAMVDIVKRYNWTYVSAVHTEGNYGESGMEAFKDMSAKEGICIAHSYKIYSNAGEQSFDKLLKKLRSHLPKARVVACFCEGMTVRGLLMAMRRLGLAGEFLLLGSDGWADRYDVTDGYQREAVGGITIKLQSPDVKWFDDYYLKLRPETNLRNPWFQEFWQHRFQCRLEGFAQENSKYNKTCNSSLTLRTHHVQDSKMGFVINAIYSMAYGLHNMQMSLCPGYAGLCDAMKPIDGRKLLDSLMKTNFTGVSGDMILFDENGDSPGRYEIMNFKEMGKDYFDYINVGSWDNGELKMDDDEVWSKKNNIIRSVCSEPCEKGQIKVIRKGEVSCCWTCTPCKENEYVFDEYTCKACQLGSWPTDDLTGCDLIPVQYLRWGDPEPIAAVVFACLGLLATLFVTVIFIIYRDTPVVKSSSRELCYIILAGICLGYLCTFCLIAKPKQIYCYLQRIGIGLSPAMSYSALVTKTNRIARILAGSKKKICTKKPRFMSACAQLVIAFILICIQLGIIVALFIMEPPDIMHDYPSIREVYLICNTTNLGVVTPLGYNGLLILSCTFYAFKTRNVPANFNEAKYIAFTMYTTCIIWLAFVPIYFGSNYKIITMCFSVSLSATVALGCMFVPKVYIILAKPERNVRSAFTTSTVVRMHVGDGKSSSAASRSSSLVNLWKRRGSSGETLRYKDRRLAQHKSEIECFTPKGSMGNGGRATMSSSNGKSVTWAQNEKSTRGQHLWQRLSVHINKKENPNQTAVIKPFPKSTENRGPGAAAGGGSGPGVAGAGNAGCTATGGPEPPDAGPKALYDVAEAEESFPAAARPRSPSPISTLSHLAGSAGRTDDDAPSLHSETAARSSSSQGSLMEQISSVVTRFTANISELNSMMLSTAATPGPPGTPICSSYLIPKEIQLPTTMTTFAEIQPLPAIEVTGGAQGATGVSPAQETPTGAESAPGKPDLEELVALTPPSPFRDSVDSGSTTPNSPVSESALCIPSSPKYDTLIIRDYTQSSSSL
Put plainly: Cytosolic calcium studies with astrocytes (astrocyte culture test, FLIPR). The settings on record: rat primary astrocytes; L-quisqualate (100 nM); read-out: mGluR5_FLIPRr_rpA IC50. Type of assay: cell-based. On the procedure: Primary astrocyte cultures are prepared from cortices of newborn rats as described by Booher and Sensenbrenner (1972, Neurobiology 2(3):97-105). Briefly, Sprague-Dawley rat pups (2-4 d old) are decapitated and neocortices are dissected, disintegrated with a nylon filter (pore size 80 μm) and carefully triturated. The cell suspension is plated on poly-D-lysine pre-coated flasks (Costar, Netherlands) and cultivated in Dulbecco's Modified Eagle's Medium (DMEM, Invitrogen, Germany) supplemented with 10% foetal calf serum (FCS, Sigma, Germany), 4 mM glutamine and 50 μg/ml gentamycin (both Biochrom, Germany) at 37° C. in a humidified atmosphere of 5% CO2/95% air for 7 d with exchanging the medium at day 2 and 6.
After 7 days in vitro (DIV), cells are shaken overnight at 250 rpm to remove oligodendrocytes and microglia. The next day, astrocytes are rinsed twice with CMF-PBS (calcium- and magnesium-free phosphate buffered saline, Biochrom, Germany), trypsinized and subplated on poly-D-lysine pre-coated 96-well plates (Greiner, Germany) at a density of 40,000 cells/well. 24 h after establishing the secondary culture the astrocytes are rinsed with PBS^++ (phosphate buffered saline, Biochrom, Germany), and fed with astrocyte-defined medium (ADM) consisting of DMEM containing 1×G^5-supplement (Invitrogen, Germany), 0.5 μg/ml heparan sulfate, and 1.5 μg/ml fibronectin (both Sigma, Germany) (Miller et al., (1993) Brain Res. 618(1):175-8). 3 d later the medium is exchanged and the cells incubated for another 2-3 d, so that at the time of experiments astrocytes are 14-15 DIV.
The increase of cytosolic calcium after stimulation with the mGluR5 agonist L-quisqualate is measured using a fluorometric imaging plate reader (FLIPR) and the Ca-Kit (both Molecular Devices). Prior to addition of agonist or antagonist the medium is aspirated and cells are loaded for 2 h at RT with 150 μl of loading buffer consisting of Ca-sensitive dye reconstituted in sodium chloride (123 mM), potassium chloride (5.4 mM), magnesium chloride (0.8 mM), calcium chloride (1.8 mM), D-glucose (15 mM), and HEPES (20 mM), pH 7.3. Subsequently, plates are transferred to FLIPR to detect calcium increase with the addition of L-quisqualate (100 nM) measured as relative fluorescence units (RFU). If antagonists are tested, these compounds are pre-incubated for 10 minutes at RT before addition of the respective agonist.
as §1, §2
For `COc1cc2c(cc1O)CCN(C(=O)c1cc3ncc(Br)cn3n1)C2C` (centres unmarked) [drawing 443, 2-[(6-bromopyrazolo[1,5-a]pyrimidin-2-yl)carbonyl]-7-methoxy-1-methyl-1,2,3,4-tetrahydro-6-isoquinolinol], the IC50 stood at 43 nM.
Turning to `CC1c2cc(F)ccc2CCN1C(=O)c1cc2ncc(Br)cn2n1` (centres unmarked) [drawing 444, (6-Bromo-pyrazolo[1,5-a]pyrimidin-2-yl)-(7-fluoro-1-methyl-3,4-dihydro-1H-isoquinolin-2-yl)-methanone], the IC50 stood at 46 nM.
Same read-out and setting: the figure for `CC1c2cccc(F)c2CCN1C(=O)c1cc2ncc(Br)cn2n1` (centres unmarked) [drawing 445, (6-Bromo-pyrazolo[1,5-a]pyrimidin-2-yl)-(5-fluoro-1-methyl-3,4-dihydro-1H-isoquinolin-2-yl)-methanone] is 17 nM; for `CC1c2ccc(F)cc2CCN1C(=O)c1cc2ncc(Cl)cn2n1` (centres unmarked) [drawing 446, (6-Chloro-pyrazolo[1,5-a]pyrimidin-2-yl)-(6-fluoro-1-methyl-3,4-dihydro-1H-isoquinolin-2-yl)-methanone] it is 47 nM.
On to `CC1CN(C(=O)c2cc3ncc(Cl)cn3n2)C(C)c2ccccc21` (centres unmarked) [drawing 447, (6-Chloro-pyrazolo[1,5-a]pyrimidin-2-yl)-(1,4-dimethyl-3,4-dihydro-1H-isoquinolin-2-yl)-methanone], for which the IC50 was 64 nM.
Same read-out and setting: the figure for `CC1CN(C(=O)c2cc3ncc(Br)cn3n2)C(C)c2ccccc21` (centres unmarked) [drawing 448, (6-Bromo-pyrazolo[1,5-a]pyrimidin-2-yl)-(1,4-dimethyl-3,4-dihydro-1H-isoquinolin-2-yl)-methanone] is 83 nM; for `COc1ccc2c(c1)CCN(C(=O)c1cc3ncc(Br)cn3n1)C2C` (centres unmarked) [drawing 449, (6-Bromo-pyrazolo[1,5-a]pyrimidin-2-yl)-(6-methoxy-1-methyl-3,4-dihydro-1H-isoquinolin-2-yl)-methanone] it is 62 nM; for `COc1ccc2c(c1)CCN(C(=O)c1cc3ncc(Cl)cn3n1)C2C` (centres unmarked) [drawing 450, (6-Chloro-pyrazolo[1,5-a]pyrimidin-2-yl)-(6-methoxy-1-methyl-3,4-dihydro-1H-isoquinolin-2-yl)-methanone] it is 69 nM.
Still for that read-out and setting: the figure for `CC1c2cccc(Br)c2CCN1C(=O)c1cc2ncc(Cl)cn2n1` (centres unmarked) [drawing 451, (5-Bromo-1-methyl-3,4-dihydro-1H-isoquinolin-2-yl)-(6-chloro-pyrazolo[1,5-a]pyrimidin-2-yl)-methanone] is 65 nM.
On the same count and under the same terms, under `O=C(c1cc2ncc(Cl)cn2n1)N1CCc2ncc(Br)cc2C1` [drawing 452, (3-Bromo-7,8-dihydro-5H-[1,6]naphthyridin-6-yl)-(6-chloro-pyrazolo[1,5-a]pyrimiddin-2-yl)-methanone] stands 48 nM.
